# Measured values taken from PubChem BioAssay (NCI).
#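 GI50 marks 50% less growth. TGI: concentration producing complete growth inhibition.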
# Columns and labels:
# Experiment in all cases: inhibition of tumour cell growth, NCI panel, 384-well format
# [1] = test system: U251 glioblastoma
# [2] = test system: HT29 colon
# [3] = test system: SR leukemia
# [4] = test system: SF-268 CNS
# [5] = test system: OVCAR-3 ovarian
# [6] = test system: SN12C renal
# [7] = test system: K-562 leukemia
# [8] = test system: UO-31 renal
# [9] = test system: HL-60(TB) leukemia
# [10] = test system: RXF 393 renal
# [11] = test system: OVCAR-8 ovarian
# [12] = test system: MDA-MB-468 breast
# [13] = test system: SF-295 CNS
# [14] = test system: OVCAR-4 ovarian
# [15] = test system: UACC-257 melanoma
# [16] = test system: HCC-2998 colon
# [17] = test system: MALME-3M melanoma
# [18] = test system: M14 melanoma
# [19] = test system: SW-620 colon
# [20] = test system: HOP-92 NSCLC
# [21] = test system: NCI-H23 lung
# [22] = test system: COLO 205 colon
# [23] = test system: NCI/ADR-RES ovarian
# [24] = test system: CCRF-CEM leukemia
# [25] = test system: NCI-H522 lung
# [26] = test system: KM12 colon
# [27] = test system: LOX IMVI melanoma
# [28] = test system: HCT-15 colon
# [29] = test system: MDA-MB-231 breast
# [30] = test system: NCI-H226 lung
# [31] = test system: EKVX NSCLC
# [32] = test system: OVCAR-5 ovarian
# [33] = test system: PC-3 prostate
# [34] = test system: MDA-MB-435 melanoma
# [35] = test system: IGROV1 ovarian
# [36] = test system: HS 578T breast
# [37] = test system: MOLT-4 leukemia
# [38] = test system: BT-549 breast
# [39] = test system: SNB-19 CNS
# [40] = test system: NCI-H322M lung
# [41] = test system: RPMI-8226 leukemia
# [42] = test system: HOP-62 NSCLC
# [43] = test system: SK-MEL-28 melanoma
# [44] = test system: NCI-H460 NSCLC
# [45] = test system: SK-MEL-5 melanoma
# [46] = test system: A498 renal
# [47] = test system: DU-145 prostate
# [48] = test system: SNB-75 CNS
# [49] = test system: SF-539 CNS
compound,measurement,setting,value
CCC(CC)c1cc(N[C@H]2CC[C@H](N)C2)n2nccc2n1,GI50,[1],334 nM
same,TGI,[1],995 nM
same,GI50,[2],406 nM
same,TGI,[2],> 100000 nM
same,GI50,[3],125 nM
same,TGI,[3],253 nM
same,GI50,[4],274 nM
same,TGI,[4],724 nM
same,GI50,[5],200 nM
same,TGI,[5],411 nM
same,GI50,[6],241 nM
same,TGI,[6],598 nM
same,GI50,[7],345 nM
same,TGI,[7],1230 nM
same,GI50,[8],388 nM
same,TGI,[8],1970 nM
same,GI50,[9],214 nM
same,TGI,[9],378 nM
same,GI50,[10],191 nM
same,TGI,[10],366 nM
same,GI50,[11],329 nM
same,TGI,[11],1760 nM
same,GI50,[12],254 nM
same,TGI,[12],612 nM
same,GI50,[13],223 nM
same,TGI,[13],499 nM
same,GI50,[14],192 nM
same,TGI,[14],414 nM
same,GI50,[15],553 nM
same,TGI,[15],1770 nM
same,GI50,[16],235 nM
same,TGI,[16],572 nM
same,GI50,[17],761 nM
same,TGI,[17],1950 nM
same,GI50,[18],276 nM
same,TGI,[18],766 nM
same,GI50,[19],360 nM
same,TGI,[19],8000 nM
same,GI50,[20],340 nM
same,TGI,[20],24300 nM
same,GI50,[21],220 nM
same,TGI,[21],505 nM
same,GI50,[22],267 nM
same,TGI,[22],646 nM
same,GI50,[23],2250 nM
same,TGI,[23],9280 nM
same,GI50,[24],210 nM
same,TGI,[24],423 nM
same,GI50,[25],209 nM
same,TGI,[25],455 nM
same,GI50,[26],295 nM
same,TGI,[26],906 nM
same,GI50,[27],190 nM
same,TGI,[27],343 nM
same,GI50,[28],348 nM
same,TGI,[28],1390 nM
same,GI50,[29],269 nM
same,TGI,[29],778 nM
same,GI50,[30],226 nM
same,TGI,[30],513 nM
same,GI50,[31],516 nM
same,TGI,[31],2650 nM
same,GI50,[32],392 nM
same,TGI,[32],> 100000 nM
same,GI50,[33],262 nM
same,TGI,[33],723 nM
same,GI50,[34],320 nM
same,TGI,[34],903 nM
same,GI50,[35],414 nM
same,TGI,[35],> 100000 nM
same,GI50,[36],269 nM
same,TGI,[36],628 nM
same,GI50,[37],247 nM
same,TGI,[37],528 nM
same,GI50,[38],207 nM
same,TGI,[38],459 nM
same,GI50,[39],377 nM
same,TGI,[39],> 100000 nM
same,GI50,[40],403 nM
same,TGI,[40],1510 nM
same,GI50,[41],181 nM
same,TGI,[41],337 nM
same,GI50,[42],234 nM
same,TGI,[42],532 nM
same,GI50,[43],969 nM
same,TGI,[43],2220 nM
same,GI50,[44],195 nM
same,TGI,[44],461 nM
same,GI50,[45],182 nM
same,TGI,[45],331 nM
same,GI50,[46],218 nM
same,TGI,[46],457 nM
same,GI50,[47],313 nM
same,TGI,[47],933 nM
same,GI50,[48],380 nM
same,TGI,[48],1190 nM
same,GI50,[49],210 nM
same,TGI,[49],452 nM
